Data as given in patent US20140349994A1, “Novel 2-Amino-4,5,6,8-Tetrahydropyrazolo[3,4-b]Thiazolo [4,5-d]Azepine Derivatives and Their Use as Allosteric Modulators of Metabotropic Glutamate Receptors” (Addex Pharma S.A., priority 2012, published 2014).

Tests used:
[1] = molecular target: T1, recombinant human mGluR4a receptors (Homo sapiens, UniProt Q14833); experiment: mGluR4 assay on HEK-expressing human mGluR4: fluorescent cell based Ca2+ mobilization assay (FLIPR); conditions: HEK-293 cells expressing hmGluR4; enhancement of EC25 glutamate response; mean of at least three independent experiments in duplicate; read-out: Ca^2+ Flux (mean EC50)
T1 construct: expressed in transfected cells
From the text: mGluR4 Assay on HEK-Expressing Human mGluR4
The compounds of the present invention are positive allosteric modulators of mGluR4 receptor. Their activity was examined on recombinant human mGluR4a receptors by detecting changes in intracellular Ca^2+ concentration, using the fluorescent Ca^2+-sensitive dye Fluo4-(AM) and a Fluorometric Imaging Plate Reader (FLIPR, Molecular Devices, Sunnyvale, Calif.).
The cDNA encoding the human metabotropic glutamate receptor (hmGluR4), (accession number NM 000841.1, NCBI Nucleotide database browser), was subcloned into an expression vector containing also the hygromycin resistance gene. In parallel, the cDNA encoding a G protein allowing redirection of the activation signal to intracellular calcium flux was subcloned into a different expression vector containing also the puromycin resistance gene. Transfection of both these vectors into HEK293 cells with PolyFect reagent (Qiagen) according to supplier's protocol, and hygromycin and puromycin treatment allowed selection of antibiotic resistant cells which had integrated stably one or more copies of the plasmids. Positive cellular clones expressing hmGluR4 were identified in a functional assay measuring changes in calcium fluxes in response to glutamate or selective known mGluR4 orthosteric agonists and antagonists.
HEK-293 cells expressing hmGluR4 were maintained in media containing DMEM, dialyzed Fetal Calf Serum (10%), Glutamax™ (2 mM), Penicillin (100 units/mL), Streptomycin (100 μg/mL), Geneticin (100 μg/mL) and Hygromycin-B (40 μg/mL) and puromycin (1 μg/mL) at 37° C.5% CO2.
Human mGluR4 HEK-293 cells were plated out 24 hours prior to FLIPR^384 assay in black-walled, clear-bottomed, poly-L-ornithine-coated 384-well plates at a density of 25,000 cells/well in a glutamine/glutamate free DMEM medium containing foetal bovine serum (10%), penicillin (100 units/mL) and streptomycin (100 μg/mL) at 37° C.5% CO2.
On the day of the assay, the medium was aspirated and the cells were loaded with a 3 μM solution of Fluo4-AM (LuBioScience, Lucerne, Switzerland) in 0.03% pluronic acid. After 1 hour at 37° C. 5% CO2, the non incorporated dye was removed by washing cell plate with the assay buffer and the cells were left in the dark at room temperature for six hours before testing. All assays were performed in a pH 7.4 buffered-solution containing 20 mM HEPES, 143 mM NaCl, 6 mM KCl, 1 mM MgSO4, 1 mM CaCl2, 0.125 mM sulfapyrazone and 0.1% glucose.
After 10 s of basal fluorescence recording, various concentrations of the compounds of the invention were added to the cells. Changes in fluorescence levels were first monitored for 180 s in order to detect any agonist activity of the compounds. Then the cells were stimulated by an EC25 glutamate concentration for an additional 110 s in order to measure enhancing activities of the compounds of the invention. EC25 glutamate concentration is the concentration giving 25% of the maximal glutamate response.
The concentration-response curves of representative compounds of the present invention were generated using the Prism GraphPad software (Graph Pad Inc, San Diego, USA). The curves were fitted to a four-parameter logistic equation:
(Y=Bottom+(Top-Bottom)(1+10̂((Log EC50−X)*Hill Slope)
allowing the determination of EC50 values.
The Table 3 below represents the mean EC50 obtained from at least three independent experiments of selected molecules performed in duplicate.

T1 sequence (Q14833 33-912): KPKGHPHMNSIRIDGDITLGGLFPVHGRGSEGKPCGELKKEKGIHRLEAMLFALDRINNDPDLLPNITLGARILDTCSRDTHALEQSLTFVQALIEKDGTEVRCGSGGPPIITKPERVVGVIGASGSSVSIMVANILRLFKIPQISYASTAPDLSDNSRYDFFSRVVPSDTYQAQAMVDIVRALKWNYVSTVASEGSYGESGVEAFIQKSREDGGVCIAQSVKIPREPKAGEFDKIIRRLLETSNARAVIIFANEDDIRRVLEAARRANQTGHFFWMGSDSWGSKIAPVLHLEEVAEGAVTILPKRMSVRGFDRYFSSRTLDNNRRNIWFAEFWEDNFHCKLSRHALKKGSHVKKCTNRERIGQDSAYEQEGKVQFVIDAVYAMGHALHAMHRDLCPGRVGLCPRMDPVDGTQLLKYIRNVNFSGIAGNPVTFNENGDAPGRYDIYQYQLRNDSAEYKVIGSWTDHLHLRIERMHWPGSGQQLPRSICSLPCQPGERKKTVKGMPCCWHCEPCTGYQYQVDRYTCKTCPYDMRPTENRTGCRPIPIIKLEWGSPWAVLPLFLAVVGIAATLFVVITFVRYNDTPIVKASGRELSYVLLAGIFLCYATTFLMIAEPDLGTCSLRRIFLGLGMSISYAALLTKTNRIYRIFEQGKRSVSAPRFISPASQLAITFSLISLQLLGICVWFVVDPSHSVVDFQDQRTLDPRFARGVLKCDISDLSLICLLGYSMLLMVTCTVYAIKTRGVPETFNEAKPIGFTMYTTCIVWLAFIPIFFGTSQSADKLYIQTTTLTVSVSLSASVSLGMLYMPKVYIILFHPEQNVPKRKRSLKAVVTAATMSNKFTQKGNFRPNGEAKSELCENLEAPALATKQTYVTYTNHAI

| Compound | melting point [°C] | EC50 [1] [nM] |
| --- | --- | --- |
| FCCCN1CCc2sc(Nc3ncc(F)cn3)nc2-c2cn[nH]c21 [Compound 1-149] | > 290 | 1000 to 10000 |
| COC[C@H](C)N1CCc2sc(Nc3ncc(F)cn3)nc2-c2cn[nH]c21 [Compound 1-131, N-(5-Fluoropyrimidin-2-yl)-6-(2-methoxy-1(S)-methyl-ethyl)-4,5,6,8-tetrahydropyrazolo[3,4-b]thiazolo[4,5-d]azepin-2-amine] | 249 to 251 | < 100 |
| CC1COCC(C)N1CCCN1CCc2sc(Nc3ncc(F)cn3)nc2-c2cn[nH]c21 (centres unmarked) [Compound 1-153] | 223 | < 100 |
| Fc1cnc(Nc2nc3c(s2)CCN(CCCN2CCCCC2)c2[nH]ncc2-3)nc1 [Compound 1-144] | 227 | 100 to 1000 |
| Fc1cnc(Nc2nc3c(s2)CCN(Cc2ccc(N4CCOCC4)cn2)c2[nH]ncc2-3)nc1 [Compound 1-135, N-(5-Fluoropyrimidin-2-yl)-6-((5-morpholinopyridin-2-yl)methyl)-4,5,6,8-tetrahydropyrazolo[3,4-b]thiazolo[4,5-d]azepin-2-amine] | 240 | < 100 |
| COCC(C)N1CCc2sc(Nc3ncc(F)cn3)nc2-c2cn[nH]c21 (centres unmarked) [Compound 1-125] | 212 to 215 | < 100 |
| Fc1cnc(Nc2nc3c(s2)CCN(CCCN2CCOCC2)c2n[nH]cc2-3)nc1 [Compound 1-140, N-(5-Fluoropyrimidin-2-yl)-6-(3-morpholinopropyl)-4,5,6,8-tetrahydropyrazolo[3,4-b]thiazolo[4,5-d]azepin-2-amine] |  | < 100 |
| COCCOCCN1CCc2sc(Nc3ncc(F)cn3)nc2-c2cn[nH]c21 [Compound 1-133] | > 220 | < 100 |
| OCCCN1CCc2sc(Nc3ncc(F)cn3)nc2-c2cn[nH]c21 [Compound 1-132, 3-(2-(5-Fluoropyrimidin-2-ylamino)-4,5-dihydropyrazolo[3,4-b]thiazolo[4,5-d]azepin-6(8H)-yl)propan-1-ol] |  | 100 to 1000 |
| Cc1nc(Nc2nc3c(s2)CCN(CC2CC2)c2[nH]ncc2-3)ns1 [Compound 1-3] |  | 1000 to 10000 |
| Fc1cnc(Nc2nc3c(s2)CCN(CCN2CCOCC2)c2[nH]ncc2-3)nc1 [Compound 1-136, N-(5-Fluoropyrimidin-2-yl)-6-(2-morpholinoethyl)-4,5,6,8-tetrahydropyrazolo[3,4-b]thiazolo[4,5-d]azepin-2-amine] |  | 100 to 1000 |
| Fc1cnc(Nc2nc3c(s2)CCN(C[C@@H]2CCCO2)c2[nH]ncc2-3)nc1 [Compound 1-126] |  | < 100 |
| Cc1nc(CN2CCc3sc(Nc4ncc(F)cn4)nc3-c3c[nH]nc32)no1 [Compound 1-138, N-(5-Fluoropyrimidin-2-yl)-6-((5-methyl-1,2,4-oxadiazol-3-yl)methyl)-4,5,6,8-tetrahydropyrazolo[3,4-b]thiazolo[4,5-d]azepin-2-amine] |  | < 100 |
| CC(C)N1CCN(CCN2CCc3sc(Nc4ncc(F)cn4)nc3-c3cn[nH]c32)CC1 [Compound 1-141, N-(5-Fluoropyrimidin-2-yl)-6-(2-(4-isopropylpiperazin-1-yl)ethyl)-4,5,6,8-tetrahydropyrazolo[3,4-b]thiazolo[4,5-d]azepin-2-amine] |  | 1000 to 10000 |
| Fc1cnc(Nc2nc3c(s2)CCN(CC2CC(F)(F)C2)c2[nH]ncc2-3)nc1 [Compound 1-14] | > 280 | 100 to 1000 |
| O=S1(=O)CCN(CCCN2CCc3sc(Nc4ncc(F)cn4)nc3-c3cn[nH]c32)CC1 [Compound 1-151, 4-(3-(2-((5-Fluoropyrimidin-2-yl)amino)-4,5-dihydropyrazolo[3,4-b]thiazolo[4,5-d]azepin-6(8H)-yl)propyl)thiomorpholine 1,1-dioxide] | 272 to 273 | < 100 |
| Fc1cnc(Nc2nc3c(s2)CCN(CCCN2CCC(F)(F)CC2)c2[nH]ncc2-3)nc1 [Compound 1-148, 6-(3-(4,4-Difluoropiperidin-1-yl)propyl)-N-(5-fluoropyrimidin-2-yl)-4,5,6,8-tetrahydropyrazolo[3,4-b]thiazolo[4,5-d]azepin-2-amine] | 238 to 240 | 100 to 1000 |

Further lines, results first:

| melting point [°C] | EC50 [1] [nM] | Compound |
| --- | --- | --- |
| 261 to 263 | < 100 | COCCN1CCc2sc(Nc3ncc(F)c(C)n3)nc2-c2cn[nH]c21 [Compound 1-129, N-(5-Fluoro-4-methylpyrimidin-2-yl)-6-(2-methoxyethyl)-4,5,6,8-tetrahydropyrazolo[3,4-b]thiazolo[4,5-d]azepin-2-amine] |
| 229 to 232 | < 100 | Cc1ccnc(Nc2nc3c(s2)CCNc2[nH]ncc2-3)n1 [Compound 1-52] |
|  | 1000 to 10000 | CNCCCN1CCc2sc(Nc3ncc(F)cn3)nc2-c2cn[nH]c21 [Compound 1-130, N-(5-Fluoropyrimidin-2-yl)-6-(3-(methylamino)propyl)-4,5,6,8-tetrahydropyrazolo[3,4-b]thiazolo[4,5-d]azepin-2-amine] |
| 229 to 231 | 100 to 1000 | Cc1cccc(Nc2nc3c(s2)CCN(C[C@@H]2CCCO2)c2[nH]ncc2-3)n1 [Compound 1-127] |
| 246 | < 100 | CCOCCN1CCc2sc(Nc3ncc(F)cn3)nc2-c2cn[nH]c21 [Compound 1-134] |
| 282 to 285 | 100 to 1000 | COC(C)(C)CN1CCc2sc(Nc3ncc(F)cn3)nc2-c2cn[nH]c21 [Compound 1-124] |
| 265 to 270 | 1000 to 10000 | Fc1cnc(Nc2nc3c(s2)CCN(Cc2cccc(F)c2)c2[nH]ncc2-3)nc1 [Compound 1-2] |
| 251 | < 100 | Cc1ccnc(Nc2nc3c(s2)CCN(CCCN2CCOCC2)c2[nH]ncc2-3)n1 [Compound 1-145] |
| 165 to 168 | < 100 | Cc1ccnc(Nc2nc3c(s2)CCN(Cc2ccc(Cl)cn2)c2[nH]ncc2-3)n1 [Compound 1-10] |
| 198 to 202 | < 100 | COCc1ccc(CN2CCc3sc(Nc4ncc(F)cn4)nc3-c3cn[nH]c32)nc1 [Compound 1-143] |
| 195 to 200 | 100 to 1000 | Cn1ccc(CN2CCc3sc(Nc4ncc(F)cn4)nc3-c3cn[nH]c32)n1 [Compound 1-139] |
| 266 to 268 | < 100 | Fc1cnc(Nc2nc3c(s2)CCN(Cc2cc(C4CC4)no2)c2[nH]ncc2-3)nc1 [Compound 1-7] |
| 282 to 284 | 100 to 1000 | N#Cc1cccc(CN2CCc3sc(Nc4ncc(F)cn4)nc3-c3cn[nH]c32)c1 [Compound 1-1, 3-((2-(5-Fluoropyrimidin-2-ylamino)-4,5-dihydropyrazolo[3,4-b]thiazolo[4,5-d]azepin-6(7H)-yl)methyl)benzonitrile] |
|  | < 100 | Cc1noc(CN2CCc3sc(Nc4ncc(F)cn4)nc3-c3cn[nH]c32)n1 [Compound 1-150, N-(5-Fluoropyrimidin-2-yl)-6-((3-methyl-1,2,4-oxadiazol-5-yl)methyl)-4,5,6,8-tetrahydropyrazolo[3,4-b]thiazolo[4,5-d]azepin-2-amine] |
| > 260 | < 100 | CC(C)c1nc(CN2CCc3sc(Nc4ncc(F)cn4)nc3-c3cn[nH]c32)no1 [Compound 1-147] |
|  | 100 to 1000 | Cc1ccnc(Nc2nc3c(s2)CCN(Cc2ncccn2)c2[nH]ncc2-3)n1 [Compound 1-152] |
|  | < 100 | Fc1cnc(Nc2nc3c(s2)CCN(Cc2cc(C4CC4)on2)c2[nH]ncc2-3)nc1 [Compound 1-4] |
| 240 to 245 | 100 to 1000 | Fc1cnc(Nc2nc3c(s2)CCN(Cc2csc(C4CC4)n2)c2[nH]ncc2-3)nc1 [Compound 1-8] |
|  | < 100 | Cc1ccnc(Nc2nc3c(s2)CCN(Cc2noc(C)n2)c2[nH]ncc2-3)n1 [Compound 1-146] |
| 283 to 286 | < 100 | FCCN1CCc2sc(Nc3ncc(F)cn3)nc2-c2cn[nH]c21 [Compound 1-137] |
